What was measured:
[1] = molecular target: T1, mouse semaphorin 3A (Sema3A) (Mus musculus, UniProt O08665); assay: Suppression of growth cone collapse activity of Sema3A (chick embryo dorsal root ganglions); assay type: cell-based; conditions: E7 chick embryo dorsal root ganglions; 2 units/ml Sema3A added 1 hour after compound; concentration where collapse rate = (A+B)/2; read-out: IC50 of inhibition of the growth cone collapse activity of Sema3A (converted)
T1 sequence (O08665 21-772): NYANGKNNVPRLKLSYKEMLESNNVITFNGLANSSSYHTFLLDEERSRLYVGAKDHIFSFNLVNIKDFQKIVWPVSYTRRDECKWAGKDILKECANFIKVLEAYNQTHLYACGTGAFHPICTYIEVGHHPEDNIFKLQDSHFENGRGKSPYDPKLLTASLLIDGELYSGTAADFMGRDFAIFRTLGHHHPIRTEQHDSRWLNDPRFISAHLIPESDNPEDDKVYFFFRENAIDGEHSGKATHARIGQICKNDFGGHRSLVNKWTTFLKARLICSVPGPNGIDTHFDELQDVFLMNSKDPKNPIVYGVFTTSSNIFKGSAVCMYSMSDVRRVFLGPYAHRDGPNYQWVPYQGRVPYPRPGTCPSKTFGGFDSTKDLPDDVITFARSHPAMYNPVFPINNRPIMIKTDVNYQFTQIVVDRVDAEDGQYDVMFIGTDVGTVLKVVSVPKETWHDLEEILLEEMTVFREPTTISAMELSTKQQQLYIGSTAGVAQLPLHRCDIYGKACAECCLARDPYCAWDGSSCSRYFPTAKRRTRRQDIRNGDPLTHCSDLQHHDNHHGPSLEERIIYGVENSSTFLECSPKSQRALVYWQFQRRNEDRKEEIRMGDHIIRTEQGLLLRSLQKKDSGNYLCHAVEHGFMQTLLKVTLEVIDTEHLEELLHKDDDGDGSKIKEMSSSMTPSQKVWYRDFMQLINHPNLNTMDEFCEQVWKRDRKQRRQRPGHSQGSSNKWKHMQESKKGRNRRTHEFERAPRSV
Description: A 96-well plate (Sumitomo Bakelite Co., ltd. ) pre-coated with polylysine was further coated with laminine (20 μg/ml of laminine, for 1 hour at room temperature). Each well was added with 100 μl of medium (F12 medium containing 10% bovine fetal serum, 20 ng/ml of NGF, 100 units/ml of penicillin and 100 μg/ml of streptomycin) which media were then inoculated with dorsal root nerve ganglions excised from E7 (Embryonic day 7) chick embryo and were cultured for 16 to 20 hours under 5% CO2 and at 37° C. Subsequently, the object compounds were added to media at various concentrations and 2 units/ml of mouse semaphorin 3A (Sema3A) was added after cultivating for 1 hour. The cultures were further incubated for another 1 hour. Glutaraldehyde was quickly added therein after said 1 hour to make the final concentration 1%. The cultures were then left for 15 minutes at room temperature so that the tissue sections were fixed, and collapse rates of the growth cones were microscopically observed. A well with no addition of Sema3A was made the control.
The longitudinal and lateral axes in the figures represent the collapse rate of growth cones and the concentration of compounds, respectively. ●▪▴ show the results when Sema3A was added after the addition of the compounds and ◯[…]Δ show those when Sema3A was not added. Further, IC50 (μg/ml) of the inhibitors were determined by the method comprising: calculating the collapse rate of growth cone (A) % of the negative controls (neither compounds nor Sema3a was added); subsequently calculate the collapse rate of growth cone (B) % of the positive controls (compounds were not added but Sema3a was added); and the concentration was chosen for each compound from the chart where the collapse rate of growth cone met (A+B)/2(%), which was made IC50 level. The followings are the results.

Sema3A = molecular target: T2, Sema3A (Mus musculus, UniProt O08665); assay: Collagen gel co-culture: suppression of neurite outgrowth inhibitory action of Sema3A; assay type: cell-based; design: key to suppression of neurite outgrowth inhibitory activity of Sema3A, score / inhibition of neurite outgrowth-inhibitory action of Sema3A, score: neurites outgrew in a complete concentric circular shape just like for the control groups where Sema3A-non-expressing COS7 cells were used, it was scored +++ (a strong inhibitory effect for Sema3A); outgrowth was found almost in a concentric circular shape accompanied with a little suppression of the outgrowth toward the direction of Sema3A-expressing COS cells, it was scored ++; outgrowth toward the direction of Sema3A-expressing COS cells is fairly suppressed to present a crescent shape, it was scored +; outgrowth toward the direction of Sema3A-expressing COS cells was not found at all (no inhibitory effect for Sema3A), it was scored −; conditions: Example 16
T2 construct: expressed in transfected cells; host or cells: COS7
T2 sequence (O08665 21-772): T1 sequence (O08665 21-772)
Description: Whether the object compounds (SPF-3059-1, M162, A721) have persistent inhibitory action to Sema3A was analyzed by the collagen gel co-culture method (Neuroprotocols 4, 116, 1994) using Sema3A-expressing COS7 cell clumps and 7- or 8-day-old chick embryo dorsal root ganglions. The Sema3A-expressing COS7 cell clumps were generated as follows. 1 μg of Sema3A-expression plasmid was introduced into COS7 cells (100000 cells/35 mm culture plate), which were cultured overnight, with the FuGENE6 transfection reagent (Roche). 2.5 hours after the starting of the transfection, the COS7 cells were collected by trypsinization and centrifugation, and re-suspended in a medium of 200 μl. 20 μl of the cell suspension was placed on the lid of the culture plate (inside) and the lid was turned over, and then the suspension was cultivated for 20 hours (hanging drop culture) (Cell 78, 425, 1994). When the culture was over, aggregated COS7 cells (clump) were collected and trimmed to a diameter of 0.5 mm. The Sema3A-expressing COS7 cell clump and the above-mentioned dorsal root ganglions were placed in parallel at a distance of 0.5 to 1 mm in a 0.2% collagen gel which was then cultivated in a medium containing the aforementioned compounds at various concentrations for 2 days at 37° C. under 5% CO2. Glutaraldehyde was quickly added therein to make the final concentration 1%. The cultures were then left for 1 hour at room temperature so that the tissues were fixed, and the neurite outgrowth was microscopically observed. The results are found in FIG. 4.
When a medium not containing a subject compound was used, neurites were unable to grow towards the COS7 cell clump with the high concentration of Sema3A and grew only to the opposite direction.
In a similar way as in Example 4, suppression of the neurite outgrowth inhibitory activity was analyzed for the compounds, SPF-3059-1, SPF-3059-2 and SPF-3059-5. When the neurites outgrew in a complete concentric circular shape just like for the control groups where Sema3A-non-expressing COS7 cells were used, it was scored +++ (a strong inhibitory effect for Sema3A). When the outgrowth was found almost in a concentric circular shape accompanied with a little suppression of the outgrowth toward the direction of Sema3A-expressing COS cells, it was scored ++. […] When the outgrowth toward the direction of Sema3A-expressing COS cells was not found at all (no inhibitory effect for Sema3A), it was scored −.

COS7 cells = assay: Effect on cell proliferation (MTT); assay type: cell-based; conditions: Chlorocebus aethiops, COS-7, 48 h, two days, read-out: IC50, inhibitory rate for cell proliferation
Description: COS7 cells were seeded onto a 96-well plate (medium 100 μl/well) at 10000 cells per well. At the same time, SPF-3059-1 of various concentrations was added and the cells were cultivated for two days in the presence of 5% CO2 at 37° C. Each well was then added with 10 μl of MTT solution at 5 mg/ml and cultured for another one hour. Subsequently, the culture supernatant was removed and formazan (an MTT derivative produced in viable cells) accumulated in the cells was dissolved by the addition of 50 μl DMSO and then the absorbance at 570 nm was measured to determine the proliferation of COS7 cells. […] The longitudinal and lateral axes in the figure show cell proliferation and the SPF-3059-1 concentration, respectively. Besides, the standard deviation (n=4) was added to each column.
The same effect on cell proliferation as in Example 9 was examined for the compounds, SPF-3059-1, SPF-3059-2 and SPF-3059-5. The wells with these compounds were served as samples, the wells with PBS were served as control, and the wells for which the experiment was carried out without adding the cells was served as blank. IC50 (μg/ml), the inhibitory rate for cell proliferation, was determined, which is calculated by the equation shown below. The inhibitory rate for cell proliferation (%)=(1−(absorbance of a sample well−absorbance of the blank well)/(absorbance of the control well−absorbance of the blank well))×100

Solubility = assay type: physicochemical

Row | SMILES | IC50 [1] [µM] | inhibition of neurite outgrowth-inhibitory action of Sema3A, score (Sema3A; 2 μg/ml compound) | Solubility (Solubility; methanol, DMSO) | Solubility (Solubility; water, hexane) | inhibition of neurite outgrowth-inhibitory action of Sema3A, score (Sema3A; 6 μg/ml compound) | inhibition of neurite outgrowth-inhibitory action of Sema3A, score (Sema3A; 20 μg/ml compound) | IC50 (COS7 cells) [µg/mL]
1 | CC(=O)c1c(C)c(C(=O)C2COc3cc(O)c(O)c(C(=O)O)c3C2=O)cc2c(=O)c3cc(O)c(O)cc3oc12 (stereo not drawn) [SPF-3059-3] | 0.374 | +++ | Soluble | Insoluble |  |  | > 100
2 | CC(=O)c1cc2c(=O)c3c(C(=O)O)cc(O)cc3oc2c(C(C)=O)c1-c1coc2cc(O)c(O)c(C(=O)O)c2c1=O [SPF-3059-4] | 3.57 | − | Soluble | Insoluble | + | ++ | > 100

Further lines, with some results ahead:

Row | IC50 [1] [µM] | inhibition of neurite outgrowth-inhibitory action of Sema3A, score (Sema3A; 2 μg/ml compound) | Solubility (Solubility; methanol, DMSO) | Solubility (Solubility; water, hexane) | inhibition of neurite outgrowth-inhibitory action of Sema3A, score (Sema3A; 6 μg/ml compound) | inhibition of neurite outgrowth-inhibitory action of Sema3A, score (Sema3A; 20 μg/ml compound) | SMILES | IC50 (COS7 cells) [µg/mL]
3 | 0.169 | ++ | Soluble | Insoluble | ++ | +++ | COCc1c(-c2cc3c(=O)c4c(C(=O)O)c(O)c(O)cc4oc3c(C(C)=O)c2C)oc2cc(O)c(O)c(C(=O)O)c2c1=O [SPF-3059-6] | > 100
4 | 1.78 | + | Soluble | Insoluble | + | ++ | CC(=O)c1c(C)c(C(=O)C2COc3cc(O)c(O)c(C(=O)O)c3C2=O)cc2c(=O)c3c(C(=O)O)cc(O)cc3oc12 (stereo not drawn) [SPF-3059-7] | > 100
5 | 3.57 | + | Soluble | Insoluble | + | ++ | CC(=O)c1cc2c(=O)c3c(C(=O)O)c(O)c(O)cc3oc2c(C(C)=O)c1-c1coc2cc(O)cc(C(=O)O)c2c1=O [SPF-3059-12] | > 100

— patent US7317038B2, “Nerve regeneration promoters containing semaphorin inhibitor as the active ingredient” (Dainippon Sumitomo Pharma Co., Ltd., priority 2000, dated 2008)
